SMILES strings stand for the structures.

What is called IC50 is the point on the concentration scale where inhibition reaches its midpoint.

The assay concerns HCV replicon. The assay can be described thus: HCV replicon luciferase reporter assay. It counts as cell-based. The conditions noted are these: Hepatitis C virus, Table 5; read-out: IC50. In a few lines:
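Replicon-bearing dividing cells seeded at 5,000–7,500 cells/well, grown 24 h at 37° C/5% CO2, then exposed to test compound at various concentrations for a further 24–48 h. Replication/translation read by luciferase reporter; IC50 taken as compound amount giving 50% reduction in luciferase activity.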

In the case of `O=C(NCCNc1nsc2ccccc12)c1cccc(-c2ccc3ccccc3c2)c1` [Compound 373, N-(2-(benzo[d]isothiazol-3-ylamino)ethyl)-3-(naphthalen-2-yl)benzamide], the IC50 is < 5 µM. As to `COc1cccc(COc2ccc(C(=O)NCCCNc3nsc4ccccc34)cc2)c1` [Entry 236, N-(3-(benzo[d]isothiazol-3-ylamino)propyl)-4-(3-methoxybenzyloxy)benzamide], the IC50 is < 5 µM. As for `N#Cc1cccnc1NCCCNc1nsc2ccccc12` [Compound 277, 2-(3-(benzo[d]isothiazol-3-ylamino)propylamino)nicotinonitrile], the IC50 is < 5 µM. For `CC(C)[C@H](NC(=O)OC(C)(C)C)C(=O)NCCNc1nsc2ccccc12` [Entry 18, (S)-tert-Butyl 1-(2-(Benzo[d]isothiazol-3-ylamino)ethylamino)-3-methyl-1-oxobutan-2-ylcarbamate] the value was < 5 µM; for `COc1ccc(-c2ccc(CN(CCCNc3nsc4ccccc34)C(=O)CN3CCOCC3)cc2)cc1` [Compound 255, N-(3-(benzo[d]isothiazol-3-ylamino)propyl)-N-((4′-methoxybiphenyl-4-yl)methyl)-2-morpholinoacetamide], < 5 µM; for `COc1cccc(NCCCNc2nsc3ccccc23)n1` [Compound 283, N^1-(benzo[d]isothiazol-3-yl)-N^3-(6-methoxypyridin-2-yl)propane-1,3-diamine], < 5 µM.

In the case of `CCN1CCN(c2ccc(C(=O)NCCCNc3nsc4ccccc34)cc2)CC1` [Compound 296, N-(3-(benzo[d]isothiazol-3-ylamino)propyl)-4-(4-ethylpiperazin-1-yl)benzamide], the IC50 is < 5 µM. For `COc1cccc(S(=O)(=O)NCCCNc2nsc3ccccc23)c1` [Entry 220, N-(3-(benzo[d]isothiazol-3-ylamino)propyl)-3-methoxybenzenesulfonamide] the value was < 5 µM. Take `Cc1ccc(OC(C)C)c(-c2ccc(C(=O)NCCNc3nsc4ccccc34)cc2)c1` [Compound 363, N-(2-(benzo[d]isothiazol-3-ylamino)ethyl)-2′-isopropoxy-5′-methylbiphenyl-4-carboxamide]: the half-maximal inhibitory concentration (IC50) was < 5 µM. With `Nc1ccc2sc(C(=O)NCCCNc3nsc4ccccc34)cc2c1` [Compound 459, 5-amino-N-(3-(benzo[d]isothiazol-3-ylamino)propyl)benzo[b]thiophene-2-carboxamide], the IC50 is < 5 µM. On to `COc1ccc(-c2ccc(CN(CCCNc3nsc4ccccc34)C(=O)CN3CCN(c4ccccc4)CC3)cc2)cc1` [Compound 256, N-(3-(benzo[d]isothiazol-3-ylamino)propyl)-N-((4′-methoxybiphenyl-4-yl)methyl)-2-(4-phenylpiperazin-1-yl)acetamide], for which the IC50 is < 5 µM. Then `COc1ccc(Cl)cc1-c1ccc(C(=O)NCCNc2nsc3ccccc23)cc1` [Compound 362, N-(2-(benzo[d]isothiazol-3-ylamino)ethyl)-5′-chloro-2′-methoxybiphenyl-4-carboxamide], with < 5 µM; and `O=C(NCCNc1nsc2ccccc12)c1ccccn1` [Entry 25, N-(2-(Benzo[d]isothiazol-3-ylamino)ethyl)picolinamide], with < 5 µM; and `O=C(O)c1ccc(C(=O)NCCNc2nsc3ccccc23)nc1` [Entry 78, 6-(2-(Benzo[d]isothiazol-3-ylamino)ethylcarbamoyl)nicotinic Acid], with > 5 µM. Turning to `COc1cccc(-c2ccc(C(=O)NCCNc3nsc4ccccc34)cc2)c1OC` [Compound 364, N-(2-(benzo[d]isothiazol-3-ylamino)ethyl)-2′,3′-dimethoxybiphenyl-4-carboxamide], the IC50 was < 5 µM. For `CCCNc1ccc(C(=O)NCCCNc2nsc3ccccc23)cc1` [Compound 290, N-(3-(benzo[d]isothiazol-3-ylamino)propyl)-4-(propylamino)benzamide], the IC50 is < 5 µM. As to `COc1ccc(S(=O)(=O)NCCCNc2nsc3ccccc23)cc1` [Compound 251, N-(3-(benzo[d]isothiazol-3-ylamino)propyl)-4-methoxybenzenesulfonamide], the half-inhibitory concentration (IC50) is < 5 µM. Regarding `CCCNC(=O)Nc1ccc2sc(C(=O)NCCCNc3nsc4ccccc34)cc2c1` [Compound 458, N-(3-(benzo[d]isothiazol-3-ylamino)propyl)-5-(3-propylureido)benzo[b]thiophene-2-carboxamide], the half-maximal inhibitory concentration (IC50) was > 5 µM.

For the compound `O=S(=O)(c1ccccc1C(F)(F)F)N(CCCNc1nsc2ccccc12)Cc1ccccc1` [Compound 254, N-(3-(benzo[d]isothiazol-3-ylamino)propyl)-N-benzyl-2-(trifluoromethyl)benzenesulfonamide], the IC50 is < 5 µM. Regarding `CCCCc1ccc(C(=O)NCCNc2nsc3ccccc23)nc1` [Compound 279, N-(2-(benzo[d]isothiazol-3-ylamino)ethyl)-5-butylpicolinamide], the IC50 was < 5 µM. With `FC(F)(F)c1ccc(NCCCNc2nsc3ccccc23)nc1` [Entry 228, N-(3-(5-(trifluoromethyl)pyridin-2-ylamino)propyl)benzo[d]isothiazol-3-amine], the IC50 is < 5 µM.

Turning to `O=C(NCCCNc1nsc2ccccc12)c1ccc(Br)nc1` [Compound 443, N-(3-(benzo[d]isothiazol-3-ylamino)propyl)-6-bromonicotinamide], the IC50 is < 5 µM. For the compound `O=S(=O)(NCCCNc1nsc2ccccc12)c1c(Cl)cc(Br)cc1Cl` [Compound 267, N-(3-(benzo[d]isothiazol-3-ylamino)propyl)-4-bromo-2,6-dichlorobenzenesulfonamide], the IC50 is < 5 µM. Turning to `O=C(NCCNc1nsc2ccccc12)c1ccc(F)cc1F` [Compound 349, N-(2-(benzo[d]isothiazol-3-ylamino)ethyl)-2,4-difluorobenzamide], the IC50 was < 5 µM. For `COc1ccc(-c2ccc(C(=O)NCCCNc3nsc4ccc(-c5ccc(OC(C)C)cc5)cc34)cc2)cc1` [Compound 409, N-(3-(5-(4-isopropoxyphenyl)benzo[d]isothiazol-3-ylamino)propyl)-4′-methoxybiphenyl-4-carboxamide] the value was < 5 µM; for `Cc1nc(S(=O)(=O)NCCCNc2nsc3ccccc23)cn1C` [Compound 248, N-(3-(benzo[d]isothiazol-3-ylamino)propyl)-1,2-dimethyl-1H-imidazole-4-sulfonamide], < 5 µM. Then `COc1ccc(-c2ccc(CN(CCCNc3nsc4ccccc34)C(=O)CNC(C)C)cc2)cc1` [Compound 257, N-(3-(benzo[d]isothiazol-3-ylamino)propyl)-2-(isopropylamino)-N-((4′-methoxybiphenyl-4-yl)methyl)acetamide], with < 5 µM; and `COc1ccc(-c2ccc(CNCCCNc3nsc4ccc(-c5ccc(OC)cc5)cc34)cc2)cc1` [Compound 410, N^1-((4′-methoxybiphenyl-4-yl)methyl)-N^3-(5-(4-methoxyphenyl)benzo[d]isothiazol-3-yl)propane-1,3-diamine], with < 5 µM. For `O=Cc1cccc(C(=O)NCCNc2nsc3ccccc23)c1` [Compound 414, N-(2-(benzo[d]isothiazol-3-ylamino)ethyl)-3-formylbenzamide], the IC50 is > 5 µM. In the case of `COc1ccc(-c2ccccc2CNCCCNc2nsc3ccccc23)cc1OC` [Compound 313, N^1-(benzo[d]isothiazol-3-yl)-N^3-((3′,4′-dimethoxybiphenyl-2-yl)methyl)propane-1,3-diamine], the IC50 is < 5 µM. `O=S(=O)(NCCCNc1nsc2ccccc12)c1cccc(Br)c1` [Compound 268, N-(3-(benzo[d]isothiazol-3-ylamino)propyl)-3-bromobenzenesulfonamide]: the IC50 was < 5 µM.

With `COc1ccc(-c2ccc(CN(CCCNc3nsc4ccccc34)S(=O)(=O)c3cn(C)c(C)n3)cc2)cc1` [Compound 316, N-(3-(benzo[d]isothiazol-3-ylamino)propyl)-N-((4′-methoxybiphenyl-4-yl)methyl)-1,2-dimethyl-1H-imidazole-4-sulfonamide], the 50% inhibitory concentration (IC50) is < 5 µM. As to `O=C(NCCCNc1nsc2ccccc12)c1ccc(O)c(Br)c1` [Compound 396, N-(3-(benzo[d]isothiazol-3-ylamino)propyl)-3-bromo-4-hydroxybenzamide], the IC50 is < 5 µM. For `COc1ccc(-c2ccc(CNCCCNc3nsc4ccccc34)cc2)cc1OC` [Compound 292, N^1-(benzo[d]isothiazol-3-yl)-N^3-((3′,4′-dimethoxybiphenyl-4-yl)methyl)propane-1,3-diamine] the value was < 5 µM; for `O=C(NCCCNc1nsc2ccccc12)c1ccc(OCCN2CCOCC2)c(Br)c1` [Compound 397, N-(3-(benzo[d]isothiazol-3-ylamino)propyl)-3-bromo-4-(2-morpholinoethoxy)benzamide], < 5 µM; for `O=C(NCCCNc1nsc2ccccc12)c1ccc(OCc2ccncc2)cc1` [Entry 235, N-(3-(benzo[d]isothiazol-3-ylamino)propyl)-4-(pyridin-4-ylmethoxy)benzamide], < 5 µM. For `COC(=O)c1ccccc1S(=O)(=O)NCCCNc1nsc2ccccc12` [Compound 243, methyl 2-(N-(3-(benzo[d]isothiazol-3-ylamino)propyl)sulfamoyl)benzoate] the value was < 5 µM. As to `CC(C)NC(=O)c1cccc(C(=O)NCCNc2nsc3ccccc23)c1` [Compound 430, N^1-(2-(benzo[d]isothiazol-3-ylamino)ethyl)-N^3-isopropylisophthalamide], the IC50 was < 5 µM.

As for `CN(CCCN(C)S(=O)(=O)c1ccccc1C(F)(F)F)c1nsc2ccccc12` [Compound 345, N-(3-(benzo[d]isothiazol-3-yl(methyl)amino)propyl)-N-methyl-2-(trifluoromethyl)benzenesulfonamide], the IC50 was > 5 µM. For `COc1cc(F)ccc1-c1cccc(C(=O)NCCCNc2nsc3ccccc23)c1` [Compound 368, N-(3-(benzo[d]isothiazol-3-ylamino)propyl)-4′-fluoro-6′-methoxybiphenyl-3-carboxamide] the value was < 5 µM.

These data come from patent US7776847B2, “Benzisothiazoles useful for treating or preventing HCV infection” (priority 2005, dated 2010).
